# Measurements reported in ChEMBL document CHEMBL3804813, “Discovery and optimization of new benzofuran derivatives against p53-independent malignant cancer cells through inhibition of HIF-1 pathway” (Bioorg Med Chem Lett, 2016).
# pIC50: −log10 of the molar value. Activity calls are given as the source filed them. The calls are words filed in the database; no cut-off is given here.
# Legend:
# [1] = Antiproliferative activity against human HCT116 cells expressing wild type p53 assessed as growth inhibition after 72 hrs by MTT assay; assay type: functional, cell-based; settings: HCT-116, 72 h
# [2] = Antiproliferative activity against human p53-null HCT116 cells assessed as growth inhibition after 72 hrs by MTT assay; assay type: functional, cell-based; settings: HCT-116, 72 h
# HCT-116 [3] = test: Induction of apoptosis in human p53-null HCT116 -/- cells assessed as early apoptotic cells at 20 uM after 48 hrs by Annexin V-FITC/propidium iodide staining based flow cytometry (reference value: 6.96%); assay type: functional
# HCT-116 [4] = test: Induction of apoptosis in human p53-null HCT116 -/- cells assessed as necrotic cells at 5 uM after 48 hrs by Annexin V-FITC/propidium iodide staining based flow cytometry (reference value: 4.67%); assay type: functional
# [5] = Cell cycle arrest in human p53-null HCT116 -/- cells assessed as accumulation at G1-phase at 5 uM after 12 hrs by propidium iodide staining based flow cytometry (reference value: 27.78%); assay type: functional; settings: HCT-116
# HCT-116 [6] = test: Induction of apoptosis in human p53-null HCT116 -/- cells assessed as early apoptotic cells at 10 uM after 48 hrs by Annexin V-FITC/propidium iodide staining based flow cytometry (reference value: 6.96%); assay type: functional
# [7] = Cell cycle arrest in human p53-null HCT116 -/- cells assessed as accumulation at S-phase at 20 uM after 12 hrs by propidium iodide staining based flow cytometry (reference value: 69.57%); assay type: functional; settings: HCT-116
# HCT-116 [8] = test: Induction of apoptosis in human p53-null HCT116 -/- cells assessed as early apoptotic cells after 48 hrs by Annexin V-FITC/propidium iodide staining based flow cytometry; assay type: functional, cell-based
# HCT-116 [9] = test: Induction of apoptosis in human p53-null HCT116 -/- cells assessed as necrotic cells at 10 uM after 48 hrs by Annexin V-FITC/propidium iodide staining based flow cytometry (reference value: 4.67%); assay type: functional
# [10] = Cell cycle arrest in human p53-null HCT116 -/- cells assessed as accumulation at G2-phase at 20 uM after 12 hrs by propidium iodide staining based flow cytometry (reference value: 2.35%); assay type: functional; settings: HCT-116
# HCT-116 [11] = test: Induction of apoptosis in human p53-null HCT116 -/- cells assessed as late apoptotic cells after 48 hrs by Annexin V-FITC/propidium iodide staining based flow cytometry; assay type: functional, cell-based
# HCT-116 [12] = test: Induction of apoptosis in human p53-null HCT116 -/- cells assessed as viable cells at 20 uM after 48 hrs by Annexin V-FITC/propidium iodide staining based flow cytometry (reference value: 85.26%); assay type: functional; settings: HCT-116, 48 h, read-out: Activity
# [13] = Cell cycle arrest in human p53-null HCT116 -/- cells assessed as accumulation at G1-phase at 10 uM after 12 hrs by propidium iodide staining based flow cytometry (reference value: 27.78%); assay type: functional; settings: HCT-116
# HCT-116 [14] = test: Induction of apoptosis in human p53-null HCT116 -/- cells assessed as early apoptotic cells at 5 uM after 48 hrs by Annexin V-FITC/propidium iodide staining based flow cytometry (reference value: 6.96%); assay type: functional
# [15] = Cell cycle arrest in human p53-null HCT116 -/- cells assessed as accumulation at G2-phase at 10 uM after 12 hrs by propidium iodide staining based flow cytometry (reference value: 2.35%); assay type: functional; settings: HCT-116
# HCT-116 [16] = test: Induction of apoptosis in human p53-null HCT116 -/- cells assessed as late apoptotic cells at 10 uM after 48 hrs by Annexin V-FITC/propidium iodide staining based flow cytometry (reference value: 3.11%); assay type: functional
# [17] = Antiproliferative activity against human MDA-MB-435S cells assessed as growth inhibition after 72 hrs by MTT assay; assay type: functional, cell-based
# [18] = Cell cycle arrest in human p53-null HCT116 -/- cells assessed as accumulation at G2-phase at 5 uM after 12 hrs by propidium iodide staining based flow cytometry (reference value: 2.35%); assay type: functional; settings: HCT-116
# [19] = biological target: Hypoxia-inducible factor 1-alpha (Homo sapiens) (UniProt Q16665); test: Inhibition of HIF-1 (unknown origin) expressed in human MCF7 cells co-transfected with hypoxia reporter plasmid p(HRE)3-Luc at 20 uM measured under hypoxia condition after 24 hrs by dual-luciferase reporter assay; assay type: cell-based
# HCT-116 [20] = test: Induction of apoptosis in human p53-null HCT116 -/- cells assessed as necrotic cells at 20 uM after 48 hrs by Annexin V-FITC/propidium iodide staining based flow cytometry (reference value: 4.67%); assay type: functional
# [21] = Cell cycle arrest in human p53-null HCT116 -/- cells assessed as accumulation at S-phase at 5 uM after 12 hrs by propidium iodide staining based flow cytometry (reference value: 69.57%); assay type: functional; settings: HCT-116
# [22] = biological target: Hypoxia-inducible factor 1-alpha (Homo sapiens) (UniProt Q16665); test: Inhibition of HIF1 in human MCF7 cells assessed as reduction in VEGF mRNA expression after 24 hrs under hypoxia condition by real-time PCR analysis; assay type: cell-based
# [23] = Cell cycle arrest in human p53-null HCT116 -/- cells assessed as accumulation at G1-phase after 12 hrs by propidium iodide staining based flow cytometry; assay type: functional; settings: HCT-116
# HCT-116 [24] = test: Induction of apoptosis in human p53-null HCT116 -/- cells assessed as morphological change at 5 to 20 uM after 48 hrs by Annexin V-FITC/propidium iodide staining based flow cytometry; assay type: functional, cell-based
# [25] = Decrease in procaspase-9 expression level in human p53-null HCT116 -/- cells at 1 to 20 uM after 24 hrs by western blot analysis; assay type: functional, cell-based; settings: HCT-116
# HCT-116 [26] = test: Induction of apoptosis in human p53-null HCT116 -/- cells assessed as viable cells at 5 uM after 48 hrs by Annexin V-FITC/propidium iodide staining based flow cytometry (reference value: 85.26%); assay type: functional; settings: HCT-116, 48 h, read-out: Activity
# [27] = Decrease in procaspase-3 expression level in human p53-null HCT116 -/- cells at 1 to 20 uM after 24 hrs by western blot analysis; assay type: functional, cell-based; settings: HCT-116
# HCT-116 [28] = test: Induction of apoptosis in human p53-null HCT116 -/- cells assessed as late apoptotic cells at 5 uM after 48 hrs by Annexin V-FITC/propidium iodide staining based flow cytometry (reference value: 3.11%); assay type: functional
# HCT-116 [29] = test: Induction of apoptosis in human p53-null HCT116 -/- cells assessed as viable cells at 10 uM after 48 hrs by Annexin V-FITC/propidium iodide staining based flow cytometry (reference value: 85.26%); assay type: functional; settings: HCT-116, 48 h, read-out: Activity
# MCF7 = test: Antiproliferative activity against human MCF7 cells assessed as growth inhibition after 72 hrs by MTT assay; assay type: functional, cell-based; settings: MCF7, 72 h
# HCT-116 [30] = test: Induction of apoptosis in human p53-null HCT116 -/- cells assessed as late apoptotic cells at 20 uM after 48 hrs by Annexin V-FITC/propidium iodide staining based flow cytometry ( Rvb = 3.11%); assay type: functional
# [31] = Cell cycle arrest in human p53-null HCT116 -/- cells assessed as accumulation at S-phase at 10 uM after 12 hrs by propidium iodide staining based flow cytometry (reference value: 69.57%); assay type: functional; settings: HCT-116
# [32] = Cell cycle arrest in human p53-null HCT116 -/- cells assessed as accumulation at G1-phase at 20 uM after 12 hrs by propidium iodide staining based flow cytometry (reference value: 27.78%); assay type: functional; settings: HCT-116
# [33] = Decrease in procaspase-3 expression level in human p53-null HCT116 -/- cells at 10 uM after 24 hrs by western blot analysis; assay type: functional, cell-based; settings: HCT-116
# [34] = Decrease in procaspase-9 expression level in human p53-null HCT116 -/- cells at 10 uM after 24 hrs by western blot analysis; assay type: functional, cell-based; settings: HCT-116
# Chain of Hypoxia-inducible factor 1-alpha (Homo sapiens) (Q16665 whole entry, looked up): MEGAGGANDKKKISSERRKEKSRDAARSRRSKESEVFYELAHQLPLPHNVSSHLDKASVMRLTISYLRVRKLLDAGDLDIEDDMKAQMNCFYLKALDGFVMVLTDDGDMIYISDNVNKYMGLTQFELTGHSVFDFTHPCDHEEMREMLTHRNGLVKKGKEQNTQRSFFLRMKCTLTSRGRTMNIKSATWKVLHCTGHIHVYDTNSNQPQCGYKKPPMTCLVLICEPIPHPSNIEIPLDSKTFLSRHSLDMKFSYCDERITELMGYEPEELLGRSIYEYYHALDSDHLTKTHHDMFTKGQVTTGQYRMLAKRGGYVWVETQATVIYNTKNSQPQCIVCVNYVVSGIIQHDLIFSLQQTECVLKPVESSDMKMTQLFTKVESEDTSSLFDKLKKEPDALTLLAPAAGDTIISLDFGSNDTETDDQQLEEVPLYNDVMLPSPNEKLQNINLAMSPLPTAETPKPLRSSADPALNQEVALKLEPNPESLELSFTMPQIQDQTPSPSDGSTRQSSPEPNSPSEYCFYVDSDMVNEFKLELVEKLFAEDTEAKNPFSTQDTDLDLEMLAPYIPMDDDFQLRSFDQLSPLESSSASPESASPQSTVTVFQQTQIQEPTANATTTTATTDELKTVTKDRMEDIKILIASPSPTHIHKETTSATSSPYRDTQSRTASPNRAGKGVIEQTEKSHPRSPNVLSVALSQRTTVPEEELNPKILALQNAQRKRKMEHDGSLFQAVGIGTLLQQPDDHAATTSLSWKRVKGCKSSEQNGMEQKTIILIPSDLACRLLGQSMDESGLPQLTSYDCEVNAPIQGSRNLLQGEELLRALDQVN
structure (smiles),measurement,setting,value
Cc1c(C(=O)O)oc2ccc(N(Cc3ccccc3)S(=O)(=O)c3ccc(C(F)(F)F)cc3)cc12,pIC50,[1],5.38
same,pIC50,[2],4.68
CCOC(=O)c1oc2ccc(NS(=O)(=O)c3ccc(C(F)(F)F)cc3)cc2c1C,pIC50,[1],5.30
same,pIC50,[2],4.62
CCOC(=O)c1oc2ccc(NS(=O)(=O)c3ccc(Br)cc3)cc2c1C,pIC50,[1],5.03
same,pIC50,[2],< 4.40
Cc1c(C(=O)O)oc2ccc(N(Cc3ccc(Cl)cc3)S(=O)(=O)c3ccc(Cl)cc3)cc12,pIC50,[1],5.44
same,pIC50,[2],4.57
CCOC(=O)c1oc2ccc(N(Cc3ccccc3)S(=O)(=O)c3ccc(OC)cc3)cc2c1C,pIC50,[1],< 4.40
same,pIC50,[2],< 4.40
CNCCNC(=O)c1oc2ccc(N(Cc3ccccc3)S(=O)(=O)c3ccc(Cl)cc3)cc2c1C,Activity,HCT-116 [3],62.28%
same,Activity,HCT-116 [4],0.5%
same,Activity,[5],36.2%
same,Activity,HCT-116 [6],55.86%
same,Activity,[7],32.2%
same,Activity,HCT-116 [8],Dose-dependent effect
same,Activity,HCT-116 [9],1.05%
same,Activity,[10],8.1%
same,Activity,HCT-116 [11],Dose-dependent effect
same,viability at 20 µM,HCT-116 [12],3.07%
same,pIC50,[1],5.52
same,Activity,[13],52.8%
same,Activity,HCT-116 [14],15.42%
same,Activity,[15],4.26%
same,Activity,HCT-116 [16],14.99%
same,pIC50,[17],5.33
same,Activity,[18],3.6%
same,inhibition,[19],47.3%
same,Activity,HCT-116 [20],0.02%
same,Activity,[21],60.2%
same,inhibition,[22],Dose-dependent effect
same,Activity,[23],Dose-dependent effect
same,Activity,HCT-116 [24],Active
same,inhibition,[25],Active
same,viability at 5 µM,HCT-116 [26],77.3%
same,inhibition,[27],Active
same,Activity,HCT-116 [28],6.74%
same,pIC50,[2],5.54
same,viability at 10 µM,HCT-116 [29],28.1%
same,pIC50,MCF7,5.34
same,Activity,HCT-116 [30],34.63%
same,Activity,[31],42.9%
same,Activity,[32],59.7%
CCOC(=O)c1oc2ccc(N(C(C)C)S(=O)(=O)c3ccc(Cl)cc3)cc2c1C,pIC50,[1],5.11
same,pIC50,[2],< 4.40
Cc1c(C(=O)NCCN(C)C)oc2ccc(N(Cc3ccccc3)S(=O)(=O)c3ccc(Cl)cc3)cc12,pIC50,[1],5.15
same,pIC50,[17],5.03
same,inhibition,[19],< 10%
same,pIC50,[2],5.20
same,pIC50,MCF7,5.17
CCOC(=O)c1oc2ccc(N(Cc3ccccc3)S(=O)(=O)c3ccc(Cl)cc3)cc2c1C,pIC50,[1],5.31
same,pIC50,[2],4.63
CCOC(=O)c1oc2ccc(N(CC3CCCCC3)S(=O)(=O)c3ccc(Cl)cc3)cc2c1C,pIC50,[1],4.85
same,pIC50,[2],< 4.40
CCOC(=O)c1oc2ccc(N(Cc3ccccc3)S(=O)(=O)c3ccccc3)cc2c1C,pIC50,[1],< 4.40
same,pIC50,[2],< 4.40
Cc1c(C(=O)O)oc2ccc(N(Cc3ccccc3)S(=O)(=O)c3ccc(Cl)cc3)cc12,pIC50,[1],5.04
same,pIC50,[2],4.48
CCOC(=O)c1oc2ccc(N(Cc3ccccc3)S(=O)(=O)c3ccc(C(F)(F)F)cc3)cc2c1C,pIC50,[1],4.57
same,pIC50,[2],4.90
COc1ccc(N(Cc2ccccc2)S(=O)(=O)c2ccc(Cl)cc2)cc1,pIC50,[1],4.74
same,pIC50,[2],< 4.40
COc1ccc(C2=N[C@@H](c3ccc(Cl)cc3)[C@@H](c3ccc(Cl)cc3)N2C(=O)N2CCNC(=O)C2)c(OC(C)C)c1 [NUTLIN-3],pIC50,[1],5.28
same,pIC50,[17],4.53
same,inhibition,[19],< 10%
same,inhibition,[33],inactive
same,pIC50,[2],4.67
same,pIC50,MCF7,5.30
same,inhibition,[34],inactive
CCOC(=O)c1oc2ccc(N(Cc3ccccc3)S(=O)(=O)c3cccc(Cl)c3)cc2c1C,pIC50,[1],< 4.40
same,pIC50,[2],< 4.40
